Calls of active or inactive are those of the source. The calls are words filed in the database; no cut-off is given here.
Key:
[1] = target: T1, Glucocorticoid receptor (Homo sapiens) (UniProt P04150); assay: Agonist activity at glucocorticoid receptor in human foreskin fibroblasts assessed as IL-1-mediated IL-6 synthesis at […] after 24 hrs relative to dexamethasone
T1 sequence (whole entry): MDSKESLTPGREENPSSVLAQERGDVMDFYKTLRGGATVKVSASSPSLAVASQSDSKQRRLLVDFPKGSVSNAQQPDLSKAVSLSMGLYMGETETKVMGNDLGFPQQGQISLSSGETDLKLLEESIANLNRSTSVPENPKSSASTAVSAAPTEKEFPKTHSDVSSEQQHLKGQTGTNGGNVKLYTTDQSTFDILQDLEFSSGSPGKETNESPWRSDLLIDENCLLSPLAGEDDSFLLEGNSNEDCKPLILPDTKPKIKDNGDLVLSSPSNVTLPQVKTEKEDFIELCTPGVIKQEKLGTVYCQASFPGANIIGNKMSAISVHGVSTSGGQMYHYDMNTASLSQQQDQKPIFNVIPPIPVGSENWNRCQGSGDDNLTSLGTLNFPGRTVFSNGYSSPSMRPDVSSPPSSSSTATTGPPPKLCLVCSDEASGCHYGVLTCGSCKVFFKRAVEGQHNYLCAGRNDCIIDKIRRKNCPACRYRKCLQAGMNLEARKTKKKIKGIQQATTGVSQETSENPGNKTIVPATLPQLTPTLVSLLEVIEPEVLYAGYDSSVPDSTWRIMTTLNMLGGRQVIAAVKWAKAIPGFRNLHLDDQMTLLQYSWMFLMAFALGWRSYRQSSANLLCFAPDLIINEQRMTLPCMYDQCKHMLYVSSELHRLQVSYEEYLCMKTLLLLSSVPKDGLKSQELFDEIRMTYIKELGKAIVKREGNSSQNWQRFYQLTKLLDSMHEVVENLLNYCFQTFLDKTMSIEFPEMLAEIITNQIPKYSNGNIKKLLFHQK

Glucocorticoid receptor [2] = target: T2, Glucocorticoid receptor (Homo sapiens, UniProt P04150); assay: Inhibition of glucocorticoid receptor (unknown origin) expressed in baculovirus-infected insect cells by fluorescence polarization assay
T2 sequence (P04150 whole entry): T1 sequence (whole entry)

Glucocorticoid receptor [3] = target: T2, Glucocorticoid receptor; assay: Agonist activity at glucocorticoid receptor in human foreskin fibroblasts assessed as IL-1-mediated IL-6 synthesis after 24 hrs
[4] = target: T3, Mineralocorticoid receptor (Homo sapiens, UniProt P08235); assay: Inhibition of mineralocorticoid receptor (unknown origin) expressed in baculovirus-infected insect cells by fluorescence polarization assay
T3 sequence (P08235 whole entry): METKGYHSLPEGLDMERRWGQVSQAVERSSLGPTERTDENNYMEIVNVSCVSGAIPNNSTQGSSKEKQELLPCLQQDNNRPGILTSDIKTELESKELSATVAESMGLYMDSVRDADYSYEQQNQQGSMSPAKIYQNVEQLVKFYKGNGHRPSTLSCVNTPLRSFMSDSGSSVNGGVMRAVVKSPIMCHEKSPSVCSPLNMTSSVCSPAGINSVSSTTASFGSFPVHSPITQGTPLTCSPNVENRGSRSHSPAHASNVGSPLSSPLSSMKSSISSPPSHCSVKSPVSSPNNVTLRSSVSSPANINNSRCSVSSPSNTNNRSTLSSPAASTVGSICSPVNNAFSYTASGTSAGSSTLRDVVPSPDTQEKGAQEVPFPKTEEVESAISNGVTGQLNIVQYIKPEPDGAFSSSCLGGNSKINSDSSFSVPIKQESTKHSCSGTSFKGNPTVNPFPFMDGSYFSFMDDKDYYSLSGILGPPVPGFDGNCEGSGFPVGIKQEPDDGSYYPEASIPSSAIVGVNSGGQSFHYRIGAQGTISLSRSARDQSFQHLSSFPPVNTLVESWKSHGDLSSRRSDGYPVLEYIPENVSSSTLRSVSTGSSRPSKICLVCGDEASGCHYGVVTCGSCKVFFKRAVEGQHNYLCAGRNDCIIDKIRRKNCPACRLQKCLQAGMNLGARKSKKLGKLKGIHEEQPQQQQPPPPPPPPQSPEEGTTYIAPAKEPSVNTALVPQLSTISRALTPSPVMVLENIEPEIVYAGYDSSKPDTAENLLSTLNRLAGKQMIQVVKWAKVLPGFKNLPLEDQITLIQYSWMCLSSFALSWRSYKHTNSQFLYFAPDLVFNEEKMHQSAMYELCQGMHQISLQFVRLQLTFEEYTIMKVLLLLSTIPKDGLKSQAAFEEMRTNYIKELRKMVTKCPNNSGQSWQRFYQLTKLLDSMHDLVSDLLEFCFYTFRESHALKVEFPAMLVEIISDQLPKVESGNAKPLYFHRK

Progesterone receptor = target: T4, Progesterone receptor (Homo sapiens, UniProt P06401); assay: Inhibition of progesterone receptor (unknown origin) expressed in baculovirus-infected insect cells by fluorescence polarization assay
T4 sequence (P06401 whole entry): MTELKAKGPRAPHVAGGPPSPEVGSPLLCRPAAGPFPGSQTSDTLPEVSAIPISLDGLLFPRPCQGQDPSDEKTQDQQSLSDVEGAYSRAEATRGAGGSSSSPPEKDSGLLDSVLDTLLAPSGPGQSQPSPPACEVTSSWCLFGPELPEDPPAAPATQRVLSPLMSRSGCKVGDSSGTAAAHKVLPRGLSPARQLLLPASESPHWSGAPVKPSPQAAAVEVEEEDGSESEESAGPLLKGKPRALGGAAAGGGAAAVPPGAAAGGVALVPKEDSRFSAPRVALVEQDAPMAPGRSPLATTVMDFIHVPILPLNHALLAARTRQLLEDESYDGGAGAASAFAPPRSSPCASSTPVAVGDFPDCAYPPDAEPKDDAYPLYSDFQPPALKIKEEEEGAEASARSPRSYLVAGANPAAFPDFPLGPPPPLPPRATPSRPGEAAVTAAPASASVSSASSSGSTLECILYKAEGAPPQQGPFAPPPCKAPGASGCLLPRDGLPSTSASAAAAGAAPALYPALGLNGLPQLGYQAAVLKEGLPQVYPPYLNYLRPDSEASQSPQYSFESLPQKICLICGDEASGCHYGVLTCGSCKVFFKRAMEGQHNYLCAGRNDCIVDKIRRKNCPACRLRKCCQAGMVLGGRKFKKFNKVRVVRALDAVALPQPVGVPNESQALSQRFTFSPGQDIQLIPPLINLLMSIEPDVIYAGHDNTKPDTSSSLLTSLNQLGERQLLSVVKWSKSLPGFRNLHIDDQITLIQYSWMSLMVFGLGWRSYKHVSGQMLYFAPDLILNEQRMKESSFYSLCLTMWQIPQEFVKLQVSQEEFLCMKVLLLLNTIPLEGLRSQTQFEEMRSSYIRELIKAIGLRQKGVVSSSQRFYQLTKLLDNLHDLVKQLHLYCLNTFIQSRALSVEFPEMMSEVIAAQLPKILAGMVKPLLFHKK

[5] = target: T1, Glucocorticoid receptor (Homo sapiens); assay: Inhibition of glucocorticoid receptor (unknown origin) expressed in baculovirus-infected insect cells up to 10 uM by fluorescence polarization assay

| SMILES | Emax [1] [%] | IC50 (Glucocorticoid receptor [2]) [nM] | IC50 (Glucocorticoid receptor [3]) [nM] | IC50 [4] [nM] | IC50 (Progesterone receptor) [nM] | inhibition [5] |
| --- | --- | --- | --- | --- | --- | --- |
| CCC(Cc1c(C)cccc1C)NS(=O)(=O)c1c(C)cc(C)cc1C (stereo unspecified) | 0 | 110 | > 10000 | > 10000 | > 10000 |  |
| CCC(Cc1ccc(O)c2ccccc12)NS(=O)(=O)c1c(C)cc(C)cc1C (stereo unspecified) | 80 | 3 | 23 | 110 | 210 |  |
| CCC(Cc1cc(F)cc(F)c1)NS(=O)(=O)c1c(C)cc(C)cc1C (stereo unspecified) | 0 | 48 | > 10000 | 400 | 3400 |  |
| CCC(Cc1cccc(C)c1)NS(=O)(=O)c1c(C)cc(C)cc1C (stereo unspecified) | 0 | 23 | > 10000 | 400 | 5500 |  |
| CCC(Cc1cc(C)cc(C)c1)NS(=O)(=O)c1c(C)cc(C)cc1C (stereo unspecified) | 36 | 11 | > 10000 | 360 | 7400 |  |
| CC[C@@H](Cc1ccc(O)cc1C)NS(=O)(=O)c1c(C)cc(C)cc1C | 0 | 27 | > 2000 | 1000 | 2800 |  |
| CC[C@@H](Cc1ccc(O)c(C)c1C)NS(=O)(=O)c1c(C)cc(C)cc1C | 77 | 2 | 22 | 270 | 620 |  |
| CCC(Cc1cccc(C)c1C)NS(=O)(=O)c1c(C)cc(C)cc1C (stereo unspecified) | 19 | 10 | > 10000 | 350 | 2000 |  |
| CCC(Cc1cc(C)ccc1C)NS(=O)(=O)c1c(C)cc(C)cc1C (stereo unspecified) | 0 | 25 | > 10000 | 320 | > 10000 |  |
| CCC(Cc1cc(Cl)cc(Cl)c1)NS(=O)(=O)c1c(C)cc(C)cc1C (stereo unspecified) | 0 | 10 | > 10000 | 150 | 1200 |  |
| CCC(Cc1ccc(OC)c(C)c1C)NS(=O)(=O)c1c(C)cc(C)cc1C (stereo unspecified) | 0 | 62 | > 2000 | 330 | 2100 |  |
| CCC(Cc1cccc2ccccc12)NS(=O)(=O)c1c(C)cc(C)cc1C (stereo unspecified) | 0 | 10 | > 10000 | 190 | 1500 |  |
| CCC(Cc1cc(C)c(OC)c(C)c1)NS(=O)(=O)c1c(C)cc(C)cc1C (stereo unspecified) | 0 | 250 | > 2000 | 1400 | > 10000 |  |
| CC[C@@H](Cc1ccc(O)c(C)c1)NS(=O)(=O)c1c(C)cc(C)cc1C | 0 | 23 | > 2000 | 2300 | 2500 |  |
| CCC(Cc1ccccc1C)NS(=O)(=O)c1c(C)cc(C)cc1C (stereo unspecified) | 0 | 83 | > 10000 | 700 | 4200 |  |
| CCC(Cc1ccc(O)c(C)c1C)NS(=O)(=O)c1c(C)cc(C)cc1C (racemic) | 81 | 5 | 15 | 240 | 860 |  |
| CC[C@@H](Cc1ccc(O)cc1)NS(=O)(=O)c1c(C)cc(C)cc1C | 0 | 120 | > 2000 | 5200 | 6400 |  |
| CCC(Cc1ccc(C)cc1C)NS(=O)(=O)c1c(C)cc(C)cc1C (stereo unspecified) | 0 | 160 | > 10000 | 2400 | 8200 |  |
| CCC(Cc1cc(C)c(O)c(C)c1)NS(=O)(=O)c1c(C)cc(C)cc1C (stereo unspecified) | 58 | 12 | 89 | 480 | 3500 |  |
| CCC(Cc1ccc2ccccc2c1)NS(=O)(=O)c1c(C)cc(C)cc1C (stereo unspecified) | 0 | 78 | > 10000 | 400 | 720 |  |
| CCC(Cc1ccc(C)cc1)NS(=O)(=O)c1c(C)cc(C)cc1C (stereo unspecified) | 0 | 230 | > 10000 | 1100 | 3400 |  |
| Cc1cc(C)c(S(=O)(=O)NC(C)Cc2ccccc2)c(C)c1 (stereo unspecified) |  |  |  |  |  | inactive |
